Source: US20160193316A1 (priority 1994, published 2016)
Like-named read-outs stand apart in the source and are kept apart here. No end group written: not given here.

Columns and labels:
[1] = target: T1, HLA-B*0702 (Homo sapiens, UniProt P01889); experiment: HLA class I peptide binding assay; conditions: Malaria B07 super motif peptides; binding value, no unit
T1 construct: endogenous in cells; host or cells: GM3107

[2] = target: HLA-A*1101 (Homo sapiens, UniProt P04439, A114D/D185E/E176A/F33Y/L180Q/S129P/T187R); experiment: HLA class I peptide binding assay
[3] = target: HLA-A*3101 (Homo sapiens, UniProt P04439, A270S/D185E/E176V/E277Q/F33T/G231S/G80R/H175R/I121M/I218V/I322F/K168Q/L300P/L318F/M331R/P217A/Q94H/R138Q/T323A/T345S/T97I/V358M); experiment: HLA class I peptide binding assay
[4] = target: HLA-A*3301 (Homo sapiens, UniProt P04439, A270S/D185E/E176V/E277Q/E87N/F33T/G231S/H175R/I121M/I218V/I322F/K168Q/K210R/L300P/L318F/M331R/P217A/Q86R/Q94H/R138Q/T323A/T345S/T97I/V358M/Y195H); experiment: HLA class I peptide binding assay
[5] = tested on: HLA-A3-supertype molecules (A3, A11, A*3101, A*3301, A*6801); type: binding, human
[6] = target: HLA-A*0201 (Homo sapiens, UniProt P04439, D140Y/D185E/D98H/E176V/E277Q/G131W/G231S/I119V/I121R/I166T/I218V/L300P/L318F/N151K/N90K/P208A/P217A/Q86G/Q94H/R138H/R169H/T345S); experiment: HLA class I peptide binding assay; conditions: Malaria A02 motif peptides, Table VIII; unit not given
[7] = target: T2, DRB1*0101 (DR1) (Homo sapiens, UniProt P01903+P01911, A100R/D57E/F55L/F60I/F76Y/I96L/L162R/M171V/P40L/Q125E/R42F/V115G/Y59C); experiment: HLA class II peptide binding assay; conditions: Table XIXb, Malaria Super Motif Peptides With Binding Data; DR1
T2 construct: endogenous in cells; host or cells: LG2

[8] = target: T3, DRB1*0301 (DR3) (Homo sapiens, UniProt P01903+P01911, A100K/A102G/A103R/A169T/F55Y/I96L/K41T/L162R/M171V/P40S/Q125H/Q178H/Q39Y/R42S/S66N/T106N/T262R/W38E/Y61H); experiment: HLA class II peptide binding assay (pH 4.5); conditions: for DR3 binding data: Table XIXb
T3 construct: endogenous in cells; host or cells: MAT

[9] = target: T4, DRB1*0401 (DR4w4) (Homo sapiens, UniProt P01903+P01911, A100K/A169T/F76Y/I96L/K127E/L162R/M171V/N62H/P40V/Q125Y/R42H/S133A/S149N/S66Y/V115G/V209L/W38E); experiment: HLA class II peptide binding assay; conditions: Table XIXb; DR4w4
T4 construct: endogenous in cells; host or cells: Preiss

[10] = target: T5, DRB1*0405 (DR4w15) (Homo sapiens, UniProt P01903+P01911, A100R/A169T/D86S/F76Y/I96L/K127E/L162R/M171V/N62H/P40V/Q125Y/R42H/S133A/S149N/S66Y/V115G/V209L/W38E); experiment: HLA class II peptide binding assay; conditions: Table XIXb; DR4w15
T5 construct: endogenous in cells; host or cells: KT3

[11] = target: T6, DRB1*0701 (DR7) (Homo sapiens, UniProt P01903+P01911, A100R/A102G/A103Q/D57E/D86V/E43K/F76Y/K127E/L162R/M171V/P40G/Q125H/Q99D/R33Q/R42Y/R54Q/S133A/S66F/T210M/V115G/Y107V/Y59L/Y89S); experiment: biochemical; type: binding
T6 construct: endogenous in cells; host or cells: Pitout

[12] = target: T7, DRB1*0802 (DR8w2) (Homo sapiens, UniProt P01903+P01911, A100R/A103L/A169T/F76Y/H45Y/I96F/K41T/L162R/M171V/P40S/Q125H/Q178H/Q39Y/Q99D/R218S/R42G/S66Y/V115G/W38E); experiment: biochemical; type: binding
T7 construct: endogenous in cells; host or cells: OLL

[13] = target: T8, DRB1*0901 (DR9) (Homo sapiens, UniProt P01903+P01911, A100R/A103E/D57H/D86V/F55Y/F60I/F76Y/I96F/K127E/L162R/M171V/P40D/Q125H/Q99R/R33Q/R42F/S133A/S66N/T210M/V115G/W38K/Y107V/Y59G/Y89S); experiment: biochemical; type: binding
T8 construct: endogenous in cells; host or cells: HID

[14] = target: T9, DRB1*1101 (DR5w11) (Homo sapiens, UniProt P01903+P01911, A100R/A169T/A87E/I96F/K41T/L162R/M171V/P40S/Q125H/Q178H/Q39Y/Q99D/R42S/S66Y/T262R/V115G/W38E); experiment: biochemical; type: binding
T9 construct: endogenous in cells; host or cells: Sweig

[15] = target: T10, DRB1*1201 (DR5w12) (Homo sapiens, UniProt P01903+P01911, A100R/A169T/D57E/D86V/F55L/H45Y/K41T/L162R/M171V/P40S/Q125H/Q178H/Q39Y/Q99D/R42G/S66L/T262R/V114A/V67L/W38E/Y59H/Y61H/Y89S); experiment: HLA class II peptide binding assay; conditions: Table XIXb; DR5w12
T10 construct: endogenous in cells; host or cells: Herluf

[16] = target: T11, DRB1*1302 (DR6w19) (Homo sapiens, UniProt P01903+P01911, A100E/A169T/K41T/L162R/M171V/P40S/Q125H/Q178H/Q39Y/Q99D/R42S/S66N/T262R/V115G/W38E/Y61H); experiment: HLA class II peptide binding assay; conditions: Table XIXb; DR6w19
T11 construct: endogenous in cells; host or cells: H0301

[17] = target: T12, DRB1*1501 (DR2w2β1) (Homo sapiens, UniProt P01903+P01911); experiment: HLA class II peptide binding assay; conditions: Table XIXb; DR2w2β1
T12 construct: expressed in transfected cells; host or cells: L466.1 (fibroblasts)

[18] = target: T13, DRB4*0101 (DRw53) (Homo sapiens, UniProt P01903+P13762, G164S); experiment: HLA class II peptide binding assay (pH 5.0); conditions: Table XIXb; DRw53
T13 construct: expressed in transfected cells; host or cells: L257.6 (fibroblasts)

[19] = target: T14, DRB5*0101 (DR2w2β2) (Homo sapiens, UniProt P01903+Q30154); type: binding
T14 construct: expressed in transfected cells; host or cells: L416.3 (fibroblasts) or GM3107

[20] = target: HLA-A*0101 (Homo sapiens, UniProt P04439, A114D/A174V/A182V/D101N/D185E/E176A/E190D/L180R/Q94H/R68K/S129P/T187R/V100A/V91M/W191G); type: binding
[21] = target: HLA-A*2402 (Homo sapiens, UniProt P04439, D101N/D140Y/D185E/E176V/E190D/F33S/G103R/G107R/I119L/I121M/I306V/K335N/L105A/L180Q/L300P/N151K/N90K/Q86E/Q94H/R106L/R138H/R89G/T104I/T345S/V100E/W191G/Y123F); experiment: HLA class I peptide binding assay

DPNRNVDBIA (EQPQGDDNNL)
B*0702 (binding information) [1]: 0.0002

FILVNLLIFH [Peptide 1167.46]
IC50 [2]: 1330 nM
IC50 [3]: 1960 nM
IC50 [4]: 397 nM
Alleles bound ([5]; A3-supermotif CTL epitopes, five A3-supertype alleles (Table XXVII)): 2
Alleles bound ([5]; A3-supertype peptides tested for binding to A*03, A*11, A*31011, A*3301, A*6801): 2
Alleles bound ([5]; A3-supertype, tested on A*03, A*11, A*31011, A*3301, A*6801, unfixed parent peptide): 2

FMKAVCVEV
A*0201 (binding information) [6]: 0.0290
DR1 binding data [7]: 0.0072
DR3 binding data [8]: -0.0008
DR4w4 binding data [9]: -0.0006
DR4w15 binding data [10]: 0.0086
DR7 binding data [11]: 0.0019
DR8w2 binding data [12]: -0.0003
DR9 binding data [13]: 0.0820
DR5w11 binding data [14]: -0.0004
DR5w12 binding data [15]: 0.0038
DR6w19 binding data [16]: 0.0003
DR2w2β1 binding data [17]: 0.0003
DRw53 binding data [18]: 0.0700
DR2w2β2 binding data [19]: 0.0430

FQDEENIGIY
A*0101 (binding information) [20]: 1.1000

FYFILVNLL
HLA-A24 binding value ([21]; HLA class I binding value as printed in column headed A*201 of Table X, unit not given): 7.5000
A*2401 (binding information, Malaria A24 motif peptides) ([21]; HLA-A*2401 binding value as printed, unit not given): 7.5000
DR1 binding data [7]: 0.0029
DR3 binding data [8]: -0.0008
DR4w4 binding data [9]: 0.0210
DR4w15 binding data [10]: -0.0009
DR7 binding data [11]: 0.0020
DR8w2 binding data [12]: 0.0010
DR9 binding data [13]: -0.0003
DR5w11 binding data [14]: 0.0011
DR5w12 binding data [15]: 0.0006
DR6w19 binding data [16]: 0.0003
DR2w2β1 binding data [17]: 0.0040
DR2w2β2 binding data [19]: 0.0044

GPFMKAVCV
B*0702 (binding information) [1]: 0.0023

HPSDGKCNLY
A*0101 (binding information) [20]: 0.0260
B*0702 (binding information) [1]: 0.0001

IPEDSEKEV
B*0702 (binding information) [1]: 0.0001
DR3 binding information ([8]; DR3a motif peptides, unit not given, exemplary 15-mer containing the core sequence): -0.0130

KYLVIVFLI
A*201 (binding information) [21]: 4.6000
A*2401 (binding information, Malaria A24 motif peptides) [21]: 4.6000
